Results taken from ChEMBL document CHEMBL1145073, “DNA binding ligands targeting drug-resistant bacteria: structure, activity, and pharmacology” (J Med Chem, 2003).
Converted amounts (≈) assume the structure as drawn.

How the values were obtained:
Staphylococcus aureus = assay: In vitro antimicrobial activity against methicillin resistant Staphylococcus aureus 27660; assay type: functional
Enterococcus faecalis [1] = assay: In vitro antimicrobial activity against vancomycin-susceptible Enterococcus faecalis 29212; assay type: functional
[2] = In vitro antimicrobial activity against penicillin-intermediate Streptococcus pneumoniae 49619; assay type: functional
Nucleic Acid = assay: Apparent binding affinity against DNA (5'-ACAATTAA-3') was determined using DNase I footprinting titration method; assay type: nucleic-acid assay; conditions: read-out: Kd app
Enterococcus faecalis [3] = assay: In vitro antimicrobial activity against vancomycin-resistant Enterococcus faecalis 51559; assay type: functional
Bacillus cereus = assay: In vitro antimicrobial activity against Bacillus cereus 11778; assay type: functional
[4] = In vitro antimicrobial activity against penicillin resistant Streptococcus pneumoniae 51422; assay type: functional
Candida albicans = assay: In vitro antimicrobial activity against Candida albicans 38247; assay type: functional; conditions: Candida albicans; read-out: MIC

Structure (SMILES)	MIC (Staphylococcus aureus) [µg/mL]	MIC (Enterococcus faecalis [1]) [µg/mL]	MIC [2] [µg/mL]	Kd (Nucleic Acid) [nM]	MIC (Enterococcus faecalis [3]) [µg/mL]	MIC (Bacillus cereus) [µg/mL]	MIC [4] [µg/mL]	MIC (Candida albicans) [µg/mL]
CN1CCN(CCNC(=O)c2cc(NC(=O)c3cc(NC(=O)c4cc(NC(=O)c5sccc5Cl)cn4C)cn3C)cn2C)CC1	4 (≈ 6.11 µM)	32 (≈ 48.9 µM)	2 (≈ 3.06 µM)	–	–	–	–	–
Cn1cc(NC(=O)c2cc(NC(=O)c3cc(-c4cccc(Cl)c4)cn3C)cn2C)cc1C(=O)NCCN1CCOCC1	8 (≈ 13.5 µM)	8 (≈ 13.5 µM)	8 (≈ 13.5 µM)	–	–	–	–	–
CN1CCN(NC(=O)c2cc(NC(=O)c3cc(NC(=O)c4cc(NC(=O)c5cc6ccccc6cn5)cn4C)cn3C)cn2C)CC1	16 (≈ 25.1 µM)	16 (≈ 25.1 µM)	16 (≈ 25.1 µM)	–	–	–	–	–
Cn1cc(NC(=O)c2cc(NC(=O)c3cc(NC(=O)c4cc5ccccc5cn4)cn3C)cn2C)cc1C(=O)NCCN1CCCC1	0.5 (≈ 0.786 µM)	2 (≈ 3.15 µM)	0.062 (≈ 0.0975 µM)	–	–	–	–	–
Cn1cc(NC(=O)c2cc(NC(=O)c3cc(-c4cccc(F)c4)cn3C)cn2C)cc1C(=O)NCCN1CCOCC1	32 (≈ 55.6 µM)	32 (≈ 55.6 µM)	16 (≈ 27.8 µM)	–	–	–	–	–
CSc1ccsc1-c1cc(C(=O)Nc2cc(C(=O)Nc3cc(C(=O)NCCN4CCOCC4)n(C)c3)n(C)c2)n(C)c1	4 (≈ 6.56 µM)	8 (≈ 13.1 µM)	0.125 (≈ 0.205 µM)	–	–	–	–	–
Cc1c(-c2cc(C(=O)Nc3cc(C(=O)Nc4cc(C(=O)NCCN5CCOCC5)n(C)c4)n(C)c3)n(C)c2)oc2ccccc12	8 (≈ 13.1 µM)	16 (≈ 26.2 µM)	2 (≈ 3.27 µM)	–	–	–	–	–
CCCCc1ccc(-c2cc(C(=O)Nc3cc(C(=O)Nc4cc(C(=O)NCCN5CCOCC5)n(C)c4)n(C)c3)n(C)c2)nc1	8 (≈ 13 µM)	32 (≈ 52.1 µM)	2 (≈ 3.25 µM)	–	–	–	–	–
Cn1cc(NC(=O)c2cc(NC(=O)c3cc(-c4csnn4)cn3C)cn2C)cc1C(=O)NCCN1CCOCC1	32 (≈ 56.6 µM)	4 (≈ 7.07 µM)	1 (≈ 1.77 µM)	–	–	–	–	–
CN(C)CCCNC(=O)c1cc(NC(=O)c2cc(NC(=O)c3cc(NC(=O)c4cc5ccccc5cn4)cn3C)cn2C)cn1C	4 (≈ 6.41 µM)	4 (≈ 6.41 µM)	1 (≈ 1.6 µM)	–	–	–	–	–
Cn1cc(NC(=O)c2cc(NC(=O)c3cc(-c4cc(Cl)c(Cl)s4)cn3C)cn2C)cc1C(=O)NCCN1CCOCC1	8 (≈ 12.6 µM)	8 (≈ 12.6 µM)	4 (≈ 6.32 µM)	–	–	–	–	–
Cn1cc(NC(=O)c2cc(NC(=O)c3cc(-c4ccc5[nH]cnc5c4)cn3C)cn2C)cc1C(=O)NCCN1CCOCC1	> 32	> 32	> 8	–	–	–	–	–
Cc1nnsc1-c1cc(C(=O)Nc2cc(C(=O)Nc3cc(C(=O)NCCN4CCOCC4)n(C)c3)n(C)c2)n(C)c1	16 (≈ 27.6 µM)	8 (≈ 13.8 µM)	2 (≈ 3.45 µM)	–	–	–	–	–
Cn1cc(NC(=O)c2cc(NC(=O)c3cc(-c4cc5ccccc5[nH]4)cn3C)cn2C)cc1C(=O)NCCN1CCOCC1	8 (≈ 13.4 µM)	8 (≈ 13.4 µM)	2 (≈ 3.35 µM)	–	–	–	–	–
Cn1cc(NC(=O)c2cc(NC(=O)c3cc(-c4ccc5nsnc5c4)cn3C)cn2C)cc1C(=O)NCCN1CCOCC1	8 (≈ 13 µM)	1 (≈ 1.62 µM)	0.5 (≈ 0.812 µM)	–	–	–	–	–
CN(C)CC(C)(C)CNC(=O)c1cc(NC(=O)c2cc(NC(=O)c3cc(NC(=O)c4cc5ccccc5cn4)cn3C)cn2C)cn1C	1 (≈ 1.53 µM)	1 (≈ 1.53 µM)	1 (≈ 1.53 µM)	–	–	–	–	–
Cn1cc(NC(=O)c2cc(NC(=O)c3cc(NC(=O)c4sccc4Cl)cn3C)cn2C)cc1C(=O)NCCN1CCCC1	8 (≈ 12.8 µM)	16 (≈ 25.6 µM)	2 (≈ 3.2 µM)	2	–	–	–	–
COc1ccsc1-c1cc(C(=O)Nc2cc(C(=O)Nc3cc(C(=O)NCCN4CCOCC4)n(C)c3)n(C)c2)n(C)c1	32 (≈ 53.9 µM)	> 32	> 32	–	–	–	–	–
Cn1cc(NC(=O)c2cc(NC(=O)c3cc(-c4ccco4)cn3C)cn2C)cc1C(=O)NCCN1CCOCC1	32 (≈ 58.4 µM)	32 (≈ 58.4 µM)	1 (≈ 1.83 µM)	–	–	–	–	–
Cn1cc(NC(=O)c2cc(NC(=O)c3cc(-c4sccc4O)cn3C)cn2C)cc1C(=O)NCCN1CCOCC1	> 32	> 32	> 32	–	–	–	–	–
Cn1cc(NC(=O)c2cc(NC(=O)c3cc(-c4ccccc4F)cn3C)cn2C)cc1C(=O)NCCN1CCOCC1	8 (≈ 13.9 µM)	0.5 (≈ 0.869 µM)	1 (≈ 1.74 µM)	–	–	–	–	–
Cn1cc(NC(=O)c2cc(NC(=O)c3cc(NC(=O)c4cc5ccccc5cn4)cn3C)cn2C)cc1C(=O)NCCN1CCNCC1	16 (≈ 24.6 µM)	> 32	> 32	–	–	–	–	–
Cn1cc(NC(=O)c2cc(NC(=O)c3cc(-c4sccc4C#N)cn3C)cn2C)cc1C(=O)NCCN1CCOCC1	4 (≈ 6.79 µM)	2 (≈ 3.4 µM)	0.5 (≈ 0.849 µM)	–	–	–	–	–
Cn1cc(NC(=O)c2cc(NC(=O)c3cc(NC(=O)c4cc5ccccc5cn4)cn3C)cn2C)cc1C(=O)NCCN1CCCCC1	0.25 (≈ 0.385 µM)	0.062 (≈ 0.0954 µM)	0.031 (≈ 0.0477 µM)	–	–	–	–	–
Cn1cc(NC(=O)c2cc(NC(=O)c3cc(-c4ccc5ccccc5c4)cn3C)cn2C)cc1C(=O)NCCN1CCOCC1	8 (≈ 13.2 µM)	4 (≈ 6.58 µM)	4 (≈ 6.58 µM)	–	–	–	–	–
Cn1cc(NC(=O)c2cc(NC(=O)c3cc(NC(=O)c4sccc4Cl)cn3C)cn2C)cc1C(=O)NCCN1CCC(F)(F)CC1	2 (≈ 2.96 µM)	2 (≈ 2.96 µM)	0.5 (≈ 0.741 µM)	50	–	–	–	–

Structure (SMILES)	MIC (Staphylococcus aureus) [µg/mL]	MIC (Enterococcus faecalis [1]) [µg/mL]	MIC [2] [µg/mL]	Kd (Nucleic Acid) [nM]	MIC (Enterococcus faecalis [3]) [µg/mL]	MIC (Bacillus cereus) [µg/mL]	MIC [4] [µg/mL]	MIC (Candida albicans) [µg/mL]
Cc1cccnc1-c1cc(C(=O)Nc2cc(C(=O)Nc3cc(C(=O)NCCN4CCOCC4)n(C)c3)n(C)c2)n(C)c1	18 (≈ 31.4 µM)	8 (≈ 14 µM)	1 (≈ 1.75 µM)	–	–	–	–	–
CC(C)S(=O)(=O)c1csc(-c2cc(C(=O)Nc3cc(C(=O)Nc4cc(C(=O)NCCN5CCOCC5)n(C)c4)n(C)c3)n(C)c2)c1Cl	4 (≈ 5.68 µM)	4 (≈ 5.68 µM)	1 (≈ 1.42 µM)	–	–	–	–	–
Cc1ccsc1-c1cc(C(=O)Nc2cc(C(=O)Nc3cc(C(=O)NCCN4CCOCC4)n(C)c3)n(C)c2)n(C)c1	16 (≈ 27.7 µM)	16 (≈ 27.7 µM)	4 (≈ 6.92 µM)	–	–	–	–	–
Cn1cc(NC(=O)c2cc(NC(=O)c3cc(-c4ccc(F)cc4F)cn3C)cn2C)cc1C(=O)NCCN1CCOCC1	2 (≈ 3.37 µM)	1 (≈ 1.68 µM)	0.125 (≈ 0.211 µM)	–	–	–	–	–
Cn1cc(NC(=O)c2cc(NC(=O)c3cc(NC(=O)c4cc5ccccc5cn4)cn3C)cn2C)cc1C(=O)NCCN1CCC(F)CC1	0.25 (≈ 0.374 µM)	0.125 (≈ 0.188 µM)	0.031 (≈ 0.0464 µM)	–	–	–	–	–
Cn1cc(NC(=O)c2cc(NC(=O)c3cc(-c4ccccc4Cl)cn3C)cn2C)cc1C(=O)NCCN1CCOCC1	32 (≈ 54 µM)	16 (≈ 27 µM)	32 (≈ 54 µM)	–	–	–	–	–
Cn1cc(NC(=O)c2cc(NC(=O)c3cc(-c4ccncc4)cn3C)cn2C)cc1C(=O)NCCN1CCOCC1	> 32	32 (≈ 57.3 µM)	2 (≈ 3.58 µM)	–	–	–	–	–
Cn1cc(NC(=O)c2cc(NC(=O)c3cc(NC(=O)c4sccc4Cl)cn3C)cn2C)cc1C(=O)NCc1ccccn1	> 32	4 (≈ 6.46 µM)	1 (≈ 1.62 µM)	–	–	–	–	–
CN(C)CCCNC(=O)c1cc(NC(=O)c2cc(NC(=O)c3cc(NC(=O)c4sccc4Cl)cn3C)cn2C)cn1C	8 (≈ 13 µM)	16 (≈ 26.1 µM)	4 (≈ 6.52 µM)	5	–	–	–	–
Cn1cc(NC(=O)c2cc(NC(=O)c3cc(NC(=O)c4cc5ccccc5cn4)cn3C)cn2C)cc1C(=O)NCCCN1CCOCC1	2 (≈ 3 µM)	2 (≈ 3 µM)	2 (≈ 3 µM)	–	–	–	–	–
Cn1cc(NC(=O)c2cc(NC(=O)c3cc(-c4ccc(F)cc4)cn3C)cn2C)cc1C(=O)NCCN1CCOCC1	16 (≈ 27.8 µM)	8 (≈ 13.9 µM)	2 (≈ 3.47 µM)	–	–	–	–	–
Cn1cc(NC(=O)c2cc(NC(=O)c3cc(NC(=O)c4sccc4Cl)cn3C)cn2C)cc1C(=O)NCCN1CCC(O)CC1	4 (≈ 6.11 µM)	4 (≈ 6.11 µM)	2 (≈ 3.05 µM)	–	–	–	–	–
Cn1cc(NC(=O)c2cc(NC(=O)c3cc(-c4cc5ccccc5o4)cn3C)cn2C)cc1C(=O)NCCN1CCOCC1	2 (≈ 3.35 µM)	4 (≈ 6.69 µM)	0.5 (≈ 0.837 µM)	–	–	–	–	–
Cn1cc(NC(=O)c2cc(NC(=O)c3cc(-c4ccc(Cl)s4)cn3C)cn2C)cc1C(=O)NCCN1CCOCC1	4 (≈ 6.69 µM)	2 (≈ 3.34 µM)	2 (≈ 3.34 µM)	–	–	–	–	–
Cn1cc(NC(=O)c2cc(NC(=O)c3cc(NC(=O)c4sccc4Cl)cn3C)cn2C)cc1C(=O)NCCc1ccccn1	2 (≈ 3.16 µM)	2 (≈ 3.16 µM)	2 (≈ 3.16 µM)	100	–	–	–	–
Cn1cc(NC(=O)c2cc(NC(=O)c3cc(NC(=O)c4sccc4Cl)cn3C)cn2C)cc1C(=O)NCCCN1CCOCC1	8 (≈ 12.2 µM)	4 (≈ 6.11 µM)	2 (≈ 3.05 µM)	71	8 (≈ 12.2 µM)	8 (≈ 12.2 µM)	8 (≈ 12.2 µM)	> 32
Cn1cc(NC(=O)c2cc(NC(=O)c3cc(-c4sc(Cl)c(Cl)c4Cl)cn3C)cn2C)cc1C(=O)NCCN1CCOCC1	16 (≈ 24 µM)	> 32	8 (≈ 12 µM)	–	–	–	–	–
Cn1cc(NC(=O)c2cc(NC(=O)c3cc(NC(=O)c4ccc5cccnc5n4)cn3C)cn2C)cc1C(=O)NCCN1CCOCC1	–	> 32	2 (≈ 3.06 µM)	–	–	–	–	–
COc1cc(Cl)ccc1C(=O)Nc1cc(C(=O)Nc2cc(C(=O)Nc3cc(C(=O)NCCN4CCOCC4)n(C)c3)n(C)c2)n(C)c1	–	8 (≈ 12 µM)	0.5 (≈ 0.752 µM)	–	–	–	–	–
Cn1cc(NC(=O)c2cc(NC(=O)c3cc(NC(=O)c4csc(-c5cccnc5)n4)cn3C)cn2C)cc1C(=O)NCCN1CCOCC1	–	> 32	2 (≈ 2.92 µM)	–	–	–	–	–
Cn1cc(NC(=O)c2cc(NC(=O)c3cc(-c4ccc5nonc5c4)cn3C)cn2C)cc1C(=O)NCCN1CCOCC1	8 (≈ 13.3 µM)	8 (≈ 13.3 µM)	8 (≈ 13.3 µM)	–	–	–	–	–
Cn1cc(NC(=O)c2cc(NC(=O)c3cc(NC(=O)c4cc5ccccc5s4)cn3C)cn2C)cc1C(=O)NCCN1CCOCC1	–	32 (≈ 48.7 µM)	1 (≈ 1.52 µM)	–	–	–	–	–
Cn1cc(NC(=O)c2cc(NC(=O)c3cc(NC(=O)c4cc5ccccc5cn4)cn3C)cn2C)cc1C(=O)NCCCN1CCCCC1	4 (≈ 6.03 µM)	4 (≈ 6.03 µM)	0.25 (≈ 0.377 µM)	–	–	–	–	–
Cn1cc(NC(=O)c2cc(NC(=O)c3cc(-c4cnc(O)c(Cl)c4)cn3C)cn2C)cc1C(=O)NCCN1CCOCC1	8 (≈ 13.1 µM)	> 32	0.5 (≈ 0.821 µM)	–	–	–	–	–
Cn1cc(NC(=O)c2cc(NC(=O)c3cc(NC(=O)c4ccc(OC(F)F)cc4)cn3C)cn2C)cc1C(=O)NCCN1CCOCC1	–	4 (≈ 6 µM)	0.062 (≈ 0.093 µM)	–	–	–	–	–
COc1ccc(C(=O)Nc2cc(C(=O)Nc3cc(C(=O)Nc4cc(C(=O)NCCN5CCOCC5)n(C)c4)n(C)c3)n(C)c2)cc1	–	> 32	0.125 (≈ 0.198 µM)	–	–	–	–	–
